Data reported in patent US20140271734A1, “BILE ACID RECYCLING INHIBITORS FOR TREATMENT OF BARRETT'S ESOPHAGUS AND GASTROESOPHAGEAL REFLUX DISEASE” (LUMENA PHARMACEUTICALS, INC., priority 2013, published 2014).
Marks after values point to notes of the source that are not given here.

Experiments:
[1] = tested on: fecal total bile acid (FBA); assay: Fecal bile acids in monkeys, LUM001 for 14 days; type: in vivo, rhesus monkeys; settings: n=5
Source text: Fifteen experimentally naive male rhesus monkeys were utilized in this study. These animals were 2.1 to 4.2 years of age and weighed between 2.8 to 4.3 kg on the day prior to treatment initiation. HARLAN TEKLAD PRIMATE DIET® (Certified) was provided daily in amounts appropriate for the size and age of the animals. The diet was supplemented with fruit or vegetables 2-3 times weekly. Small bits of fruit, cereal or other treats were given to the animals following dose administration and periodically as part of facility's environmental enrichment program. Beginning prior to treatment initiation, only non-fat treats were provided to the animals (e.g., standard primate treats including peanut butter, sunflower seeds, baby food, nuts, pudding, and worms were specifically not permitted). Tap water was available ad libitum via an automatic watering device. Each animal was administered a dose of the LUM001 contained within gelatin capsules or the control article (empty gelatin capsules) once daily for 14 consecutive days. Fecal samples for determination of bile acid content were collected over approximately 24-hour periods beginning three days prior to treatment initiation and continuing until scheduled termination of dosing on Day 15. Samples were stored at −70 C until analysis.
Fecal samples were collected to determine the fecal total bile acid (FBA) concentration for each animal. Fecal collections were made during the final 72 hours of the study, for three consecutive 24-hour periods between 9:00 am and 10:00 am each day, prior to dosing and feeding. The separate daily collections from each dog were weighed, combined and homogenized with distilled water in a food processor to generate a homogeneous slurry. Homogenate (1.4 g) was extracted in a final concentration ratio of 2:0.6 of 50% (v/v) tertiary butanol/distilled water for 45 minutes in a 37° C. water bath and subjected to centrifugation for 13 minutes at 2000×g. The concentration of bile acids (mmolesgram homogenate) was determined using a 96-well enzymatic assay system. Aliquots of the fecal extracts (20 μl) were added to two sets of triplicate wells in a 96 well assay plate. A standardized sodium taurocholate solution and a standardized fecal extract solution (previously made from pooled samples and characterized for its bile acid concentration) were also analyzed for assay quality control. Aliquots of sodium taurocholate (20 μl), were serially diluted to generate a standard curve containing 30-540 nmoles/well. A 230 μl aliquot of reaction mixture containing 1M hydrazine hydrate, 0.1 M pyrophosphate and 0.46 mg/ml NAD was added to each well. […] Following 60 minutes of incubation at room temperature, the optical density at 340 nm was measured and the mean of each set of triplicate samples was calculated. […]

[2] = Pharmacokinetics of LUM002 following single administration to rats; type: in vivo, Sprague Dawley Rat; settings: for F: PO 20 mg/kg free acid, topmost estimate assuming 1 ng/mL over 24 h and dose-linear exposure
Description: To each rat either a single oral (PO; 20 mg/kg free acid) or a single intravenous (IV; 2 mg/kg free acid) dose of [^14Cl]LUM002 was administered. For PO and IV administration, the test substance was prepared with the adequate amount of water to reach a solution with a concentration of approximately 4 mg/g (PO) and 1 mg/g (IV). Oral administration was a gavage using a stomach tube and IV administration was a bolus injection into the tail vein. Exact doses administered to animals were calculated according to syringe weights.
The doses of radioactivity actually administered were determined by using standards prior to and after treatment of the animals. Blood—Animals were anaesthetized (Isoflurane) for blood sampling (3 animals/time point) and then euthanized by […]. Blood samples (maximal volume from each animal approx. 8 mL) were withdrawn from the abdominal aorta into containers containing a small amount of lithium heparin. and samples were centrifuged for 2 minutes at 1540 g. Aliquots (100 μL) of blood were used for hematocrit determination. Animals for the control groups (male and/or female) were used as predose animals for sampling of untreated biological samples (blood and plasma or liver, myocardium, kidneys only from male control animals). Plasma—To obtain plasma, blood samples were centrifuged for 10 minutes and stored cooled before final division.
Bioanalytical analysis—50 μL of plasma samples were placed into an 1.5 mL reaction tube. 5 μL methanol was added to each sample. For protein precipitation, 100 μL of the internal standard working solution (100 ng/mL of benzyl-13C6-LUM002 in acetonitrile) and 50 μL acetonitrile were added. In case of double blank samples, pure acetonitrile was added. Tubes were sealed and mixed thoroughly for 10 seconds. The tubes were centrifuged for 5 minutes at ≧3000 g. 50 μL of the clear supernatant was transferred into an autoinjector vial and were diluted with 50 μL deionized water. Analysis of samples was performed by using LC-MSMS (injection volume 50-75 μL) with a lower limit of quantification in the assay of 1 ng/mL for LUM002.

plasma triglycerides = assay: Plasma triglycerides in ZDF rats, week 3; type: in vivo; settings: twice daily oral gavage, no dose-related response
[3] = M, IV bolus injection 2 mg/kg free acid

Q: With `CCCCC1(CCCC)CS(=O)(=O)c2ccc(N(C)C)cc2[C@@H](c2ccc(OCc3ccc(C[N+]45CCN(CC4)CC5)cc3)cc2)[C@H]1O` [LUM001] as the molecule, how does the “Fecal Total Bile Acids” value ([1]; 5 mg/kg once daily 14 days, Day 15) read?
A: Its value is 23 µmol/day/kg.

Q: And the “Fecal Total Bile Acids” value ([1]; 5 mg/kg once daily, Prestudy)?
A: The value was 6 µmol/day/kg.

Q: What about the “Fecal Total Bile Acids” value ([1]; 50 mg/kg once daily 14 days, Day 15) of the same molecule?
A: The value was 63 µmol/day/kg.

Q: What about the “Fecal Total Bile Acids” value ([1]; 50 mg/kg once daily, Prestudy) of the same molecule?
A: Its value is 6 µmol/day/kg.

Q: What does the source list for `CCCC[C@]1(CC)CS(=O)(=O)c2ccc(N(C)C)cc2[C@@H](c2cccc(NC(=O)N[C@@H]3O[C@H](COS(=O)(=O)[O-])[C@@H](O)[C@H](OCc4ccccc4)[C@H]3O)c2)[C@H]1O.CCO.O.[K+]` [LUM002, potassium((2R,3R,4S,5R,6R)-4-benzyloxy-6-{3-[3-((3S,4R,5R)-3-butyl-7-dimethylamino-3-ethyl-4-hydroxy-1,1-dioxo-2,3,4,5-tetrahydro-1H-benzo[b]thiepin-5-yl)-phenyl]-ureido}-3,5-dihydroxy-tetrahydro-pyran-2-ylmethyl)sulphate ethanolate, hydrate]?
A: F ([2]; F): <1.3^e %; Cmax [2, 3]: 1036 ng/mL; Vss [2, 3]: 3.890 L/kg; t1/2 [2, 3]: 10.7 h; Tmax ([2]; M, IV bolus injection 2 mg/kg free acid, extrapolated to t = 0): 0^c h; F ([2]; M): <1.3^e %; LUM002 dose systemically absorbed ([2]; rats, single PO 20 mg/kg vs IV 2 mg/kg free acid): Less than 2%; Fasting plasma triglycerides (plasma triglycerides): statistically significant elevations
